Values joined by “and” are separate entries in the source; they are usually repeats but may differ in a detail not shown here. Equal entries are not always repeated. Where two headings read alike, the source gives them in different places.
Tests used:
[1] = system: Rhodopirellula baltica RbMPO variant D202A, E316A (of SEQ ID NO: 1)
Description: (§3) Initial rate measurements under steady state conditions were performed with a BioLogic SFM400 stopped-flow by using a single-mixing mode and an Xe/Hg lamp and a TC100/10 cell. […] At least five 120 s shots were monitored for each value of the substrate range with the following sample rates: 20 μs, 20 ms, 20 ms with 2000 points per period. Slopes were calculated from the average of the shorts for each concentration and kss (s^−1) were determined from the slopes using the following formula:
(§4) The collected data were analysed with Origin software, then saturation curves for each substrate were fitted either by non-linear regression with or without inhibition by excess of substrate (Eq. 1 and 2) with [S]the substrate of interest, or by linear regression (Eq. 3) with a the slope and b the y-intercept.
(§5) From the averages of the curves obtained for each shot, the slopes in Abs.s^−1 were calculated and then converted into kss by the following relation:

[2] = system: Rhodopirellula baltica RbMPO, wild type, SEQ ID NO: 1; conditions: wt, 300 nM enzyme; for kcatapp/KMappNaSCN (NaBr range) / kss/[Cl^−] (k2): 79 μM H2O2; for kss/[Cl^−] (k2): NaCl range
Description: as §3, §4
(§6) The stopped-flow was used to define the steady-state kinetic parameters of RbMPOs. […] From the averages of the curves obtained for each shot, the slopes in Abs.s^−1 were calculated and then converted into kss by the following relation:

[3] = system: Rhodopirellula baltica RbMPO variant N317M (of SEQ ID NO: 1)
Description: as §3, §4, §6

[4] = system: Rhodopirellula baltica RbMPO variant H203A (of SEQ ID NO: 1)
Description: as §3, §4, §5

[5] = system: Rhodopirellula baltica RbMPO variant E316A (of SEQ ID NO: 1)
Description: as §3, §4, §6

[6] = system: Rhodopirellula baltica RbMPO, wild type, SEQ ID NO: 1; test: Pre-steady-state kinetics: compound I formation and return to native state (stopped-flow, 412 nm); assay type: biochemical; conditions: wt RbMPO […], H2O2 20 μM, 37° C., pH7.5
Description: In the first moment after an enzyme is mixed with a substrate, no product has been formed and no intermediates exist. The study of the next few milliseconds of the reaction is called pre-steady-state kinetics.
Kinetic parameters under pre-steady-state condition were performed with a Biologic SFM400 stopped-flow at 412 nm, 37° C. and with 50 mM sodium phosphate buffer at pH7.5. […] An exponential linear fit was applied to each kinetic using the following formula: […]
where p1 corresponds to the exponential magnitude, p2 to the decay time Tau (s) and
The heme Soret band is at 412 nm for the native Fe^III iron form, which is why the decrease in absorbance was followed at this particular wavelength as a function of time. The rate constant was measured using the A412nm curves as a function of time (data not shown). By applying Eq.4 to the exponential part of each kinetic, the values of Tau (s) were determined and the kobs (s^−1) were calculated.
The return of the enzyme to its native state was studied by the impact of increasing concentrations of (pseudo)-halides substrates on compound I (FIG. 9B). […] It is the time difference (s) between the two characteristic steps that allowed the calculation of the values of the Vreturn(μM^−1.s^−1) values: […]

[7] = system: Rhodopirellula baltica RbMPO variant Q199A (of SEQ ID NO: 1)
Description: as §3, §4, §6

[8] = system: Rhodopirellula baltica RbMPO, wild type, SEQ ID NO: 1; conditions: 0.5 nM wt RbMPO, 79 μM H2O2, 37° C., pH5.5
Description: The plate reader was configured to run a 10 min kinetics at 430 nm with the following ABTS concentration range: 0, 0.1, 0.2, 0.5, 1, 2, 5, 10, 15, 20, 30 and 40 mM.

[9] = target: Rhodopirellula baltica RbMPO variant D202A, E316A (of SEQ ID NO: 1); test: Heme reconstitution (apo to holo) by tryptophan fluorescence quenching; assay type: binding; conditions: E316A 1 μM, 25° C., pH7.5
Description: (§1) Tryptophan fluorescence quenching and recovery can be used to monitor the protein confirmation changes from an “apo” to an “holo” form upon addition of its coenzyme (herein heme).
(§2) The Trp fluorescence quenching experiment was performed in a spectrofluorometric FP8300 with a temperature-controlled stirred-cell (25° C.). […] Sample dilutions were performed in a 50 mM pH7.5 sodium phosphate buffer.

[10] = system: Rhodopirellula baltica RbMPO variant H407A (of SEQ ID NO: 1); test: as above; assay type: binding; conditions: H407A 1 μM; 25° C., pH7.5
Description: as §1, §2

[11] = system: Rhodopirellula baltica RbMPO variant D202A (of SEQ ID NO: 1); test: as above; assay type: binding; conditions: D202A 1 μM; 25° C., pH7.5
Description: as §1, §2

[12] = system: Rhodopirellula baltica RbMPO variant Q199A (of SEQ ID NO: 1); test: as above; assay type: binding; conditions: Q199A 1 μM; 25° C., pH7.5
Description: as §1, §2

[13] = system: Rhodopirellula baltica RbMPO variant N317M (of SEQ ID NO: 1); test: as above; assay type: binding; conditions: N317M 1 μM; 25° C., pH7.5
Description: as §1, §2

[14] = system: Rhodopirellula baltica RbMPO variant E316A (of SEQ ID NO: 1); test: as above; assay type: binding; conditions: E316A 1 μM; 25° C., pH7.5
Description: as §1, §2

[15] = system: Rhodopirellula baltica RbMPO variant H203A (of SEQ ID NO: 1); test: as above; assay type: binding; conditions: H203A 1 μM; 25° C., pH7.5
Description: as §1, §2

[16] = system: Rhodopirellula baltica RbMPO, wild type, SEQ ID NO: 1; test: as above; assay type: binding; conditions: wt RbMPO 1 μM; 25° C., pH7.5
Description: as §1, §2

[17] = system: Rhodopirellula baltica RbMPO variant D202A (of SEQ ID NO: 1); conditions: pH 7.5
Description: as §3, §4, §6

[18] = system: Rhodopirellula baltica RbMPO variant H407A (of SEQ ID NO: 1)
Description: as §3, §4, §5

## [Br-].[Na+] [NaBr]
[1]
  activity (NaBr range): No activity
[2]; read-out: KMapp (NaBr), 79 μM H2O2, 37° C., pH 7.5
  Km: 133000 ± 32800 µM
[2]; 79 μM H2O2, 37° C., pH 7.5
  kcatapp (NaBr): 76.33 ± 5.12 s⁻¹
[2]
  kcatapp/KMappNaSCN (NaBr range): 576.86 ± 172.22 M⁻¹ s⁻¹
[2]; listed as Br^−
  kcatapp/KMappNaSCN (NaBr range): 576.96 ± 172.22 M⁻¹ s⁻¹
[3]
  kss/[SCN^−] (NaBr range): 2.22 ± 1.20 M⁻¹ s⁻¹
[4]
  kss/[SCN^−] (NaBr range): 73.94 ± 15.07 M⁻¹ s⁻¹
[5]
  activity (NaBr range): No activity
[6]
  Vreturn (Sreturn/[enzyme]): 11.11 ± 0.57 s⁻¹
  kreturn max (return to native state): 21.11 ± 1.09 µM/s
  kreturn/K1/2 (return to native state): 607.77 ± 161.51 M⁻¹ s⁻¹
[7]
  kss/[SCN^−] (NaBr range): 78.19 ± 22.00 M⁻¹ s⁻¹

## I [I^−]
[6]
  Vreturn (Sreturn/[enzyme]): 16.66 ± 0.65 s⁻¹
  kreturn max (return to native state): 31.65 ± 1.23 µM/s

## [Cl-].[Na+] [NaCl]
[2]
  kss/[Cl^−] (k2): 5.46 ± 0.67 M⁻¹ s⁻¹
[2]; listed as Cl^−
  kss/[Cl^−] (k2): 4.48 ± 0.64 M⁻¹ s⁻¹
[6]
  Vreturn (Sreturn/[enzyme]): 1.37 ± 0.19 s⁻¹
  kreturn max (return to native state): 2.61 ± 0.37 µM/s
  kreturn/K1/2 (return to native state): 5169 ± 4872 M⁻¹ s⁻¹

## CCn1c(=NN=c2sc3cc(S(=O)(=O)O)ccc3n2CC)sc2cc(S(=O)(=O)O)ccc21 [ABTS, 2,2′-azino-bis(3-ethylbenzothiazoline-6-sulfonic acid)]
[8]
  k2 (peroxidase, ABTS): 10620 ± 1510 M⁻¹ s⁻¹

## C=CC1=C(C)c2cc3[nH]c(cc4nc(cc5[nH]c(cc1n2)c(C)c5CCC(=O)O)C(CCC(=O)O)=C4C)c(C)c3C=C.[Fe+3] [heme]
[9]
  Kd: 10.9 ± 6.14 µM
  Kobsmax (heme reconstitution): 0.28 ± 0.06 s⁻¹
[10]
  k2 (heme reconstitution): 1320 ± 18.9 M⁻¹ s⁻¹
[11]
  k2 (heme reconstitution): 302+23.4 M−1 · s−1
[12]
  k2 (heme reconstitution): 1720 ± 133 M⁻¹ s⁻¹
[13]
  k2 (heme reconstitution): 470.2 ± 57.8 M⁻¹ s⁻¹ and 472.2 ± 57.8 M⁻¹ s⁻¹
[14]
  k2 (heme reconstitution): 418 ± 34 M⁻¹ s⁻¹
[15]
  k2 (heme reconstitution): 1840 ± 167 M⁻¹ s⁻¹
[16]
  k2 (heme reconstitution): 1430 ± 74.4 M⁻¹ s⁻¹

## N#C[S-].[Na+] [NaSCN]
[2]; read-out: KMapp (NaSCN), 79 μM H2O2, 37° C., pH 7.5
  Km: 510 ± 80 µM
[2]; 79 μM H2O2, 37° C., pH 7.5
  kcatapp (NaSCN): 56.90 ± 6.92 s⁻¹
[3]; pH 7.5
  k2 (NaSCN): 1074 ± 53 M⁻¹ s⁻¹
[17]
  kcatapp (NaSCN): 83.54 ± 12.04 s⁻¹
[17]; read-out: KMapp (NaSCN)
  Km: 980 ± 310 µM
[5]; pH 7.5
  k2 (NaSCN): 1936 ± 374 M⁻¹ s⁻¹
[6]
  Vreturn (Sreturn/[enzyme]): 13.65 ± 0.51 s⁻¹
  kreturn max (return to native state): 25.94 ± 0.97 µM/s
[7]
  activity (NaSCN range): No activity
[18]
  activity in presence of SCN: not active
